# Laboratory results from US20020192637A1, “Biological Sensor” (priority 1999, published 2002).
# Key:
# [1] = test system: hippocampal neuronal cell cultures; assay: Acute addition of antimicrobial agents to spontaneously active hippocampal neuronal cultures on MMEP plates; assay type: cell-based, rat; conditions: for effect on spontaneous activity at up to 10 times the normal concentration/volume: sequential 10 μl additions up to 10 times normal; for effect on spontaneous activity (firing) of the monitored channel: acute addition (10 μl) at the concentration used routinely in tissue culture, hippocampal cultures grown 4 weeks antibiotic-free; for effect of further sequential 10 μl additions: subsequent 10 μl aliquots (penicillin G up to 100 μl at approx. 10 second intervals)
# Method: Acute administration of antibiotic compounds to neuronal cell cultures: the majority of experiments involved the investigation of acute addition of a range of antibiotics to hippocampal cultures grown in antibiotic-free Neurobasal medium for 4 weeks. In each case MMEP's were screened for activity and a strong, reliable channel was selected for experimentation. Each antibiotic was tested on at least 3 individual cultures and the antibiotic addition was started at the concentration used routinely in tissue culture studies. As controls, the anti-fungal agents Nystatin and Amphotericin B (Fungizone), and the anti-mycoplasma (PPLO) agent Tylosin were also tested. In addition, the agent in which the antibiotic compound was dissolved (usually deionised water or 0.9% sodium chloride), as well as normal medium, were also tested for any effects on neuronal activity. Particular interest was paid to the effects of penicillin G, streptomycin and penicillin/streptomycin mixtures. These are routinely used in tissue culture medium and therefore any possible toxic effects are particularly relevant.
# P19 cell line = assay: Differentiation of P19 cell line with retinoic acid; assay type: cell-based, mouse; conditions: retinoic acid in differentiation medium
# Method: Differentiation: MEM+0.1% FBS+L-Glutamine (2 mM)+Non-essential Amino acids (1×)+30 uM retinoic acid
# Neurobasal+B27+Non-essential Amino acids (1×)+L-Glutamine (2 mM)+30 uM retinoic acid
# Differentiation experiments have been performed on the P19 cell line using retinoic acid. […] However, only 60-70% of the cells responded to the stimulus, such that over an extended period the non-neuronal cells proliferate vigorously and kill the neuronal cells. The use of serum-free medium has overcome this problem but cultures appear unhealthy after a period of 2 weeks.
# hippocampal cultures = assay: Chronic administration of antibiotics to hippocampal cultures grown over 4 weeks, neuronal network activity; assay type: cell-based, rat
# Method: Effects of antibiotics on neuronal network activity: chronic administration of antibiotics to neuronal cell cultures. The chronic effect of antibiotics on neuronal network activity was investigated. Experiments were performed on hippocampal cultures grown in parallel, from the same cell preparation, in the presence or absence of penicillin-streptomycin or gentamycin at the recommended doses.
# guinea pigs = conditions: high doses, administered chronically to guinea pigs; cited from earlier work
compound,measurement,setting,value
C[C@@H]1[C@H](O)[C@@H](C)/C=C/C=C/CC/C=C/C=C/C=C/C=C/C(O[C@H]2O[C@H](C)[C@@H](O)[C@H](N)[C@@H]2O)CC2O[C@](O)(CC(O)C(O)CCC(O)CC(O)CC(O)CC(=O)O[C@H]1C)CC(O)C2C(=O)O (stereo partly drawn) [Nystatin],effect on spontaneous activity at up to 10 times the normal concentration/volume,[1],No inhibition of activity
CC1(C)S[C@@H]2[C@H](NC(=O)Cc3ccccc3)C(=O)N2[C@H]1C(=O)O [Penicillin G],effect on spontaneous activity (firing) of the monitored channel,[1],immediate increase in the firing rate
same,effect on spike amplitude,[1]; acute addition of 10 μl,small associated decrease in the amplitude
same,effect on spontaneous activity at up to 10 times the normal concentration/volume,[1],"initial acceleration of the firing rate, with an accompanied reduction in spike amplitude"
same,effect of further sequential 10 μl additions,[1],further decrease in the amplitude with eventual slowing of the firing rate
[H]/N=C(/N)N[C@H]1[C@H](O)[C@@H](O)[C@H](O[C@@H]2O[C@@H](C)[C@](O)(C=O)[C@H]2O[C@@H]2O[C@@H](CO)[C@H](O)[C@@H](O)[C@@H]2NC)[C@@H](N/C(N)=N\[H])[C@@H]1O [Streptomycin],silence before activity begins to recover,"[1]; 10 μl, particularly strong (>500(V) channel, without change of medium)",approximately 30 seconds
same,effect on spontaneous activity (firing) of the monitored channel,[1],immediate cessation of firing
same,effect of further sequential 10 μl additions,[1],immediate interruption of activity
same,effect on channel with weak activity,"[1]; weak activity (<500 μV), single 10 μl addition",sufficient to inhibit activity for several minutes
CC[C@H]1OC(=O)C[C@@H](O)[C@H](C)[C@@H](O[C@@H]2O[C@H](C)[C@@H](O[C@H]3C[C@@](C)(O)[C@@H](O)[C@H](C)O3)[C@H](N(C)C)[C@H]2O)[C@@H](CC=O)C[C@@H](C)C(=O)/C=C/C(C)=C/[C@@H]1CO[C@@H]1O[C@H](C)[C@@H](O)[C@@H](OC)[C@H]1OC [Tylosin],effect on spontaneous activity at up to 10 times the normal concentration/volume,[1],No inhibition of activity
"C[C@@H]1[C@H](O)[C@@H](C)/C=C/C=C/C=C/C=C/C=C/C=C/C=C/[C@H](O[C@@H]2O[C@H](C)[C@@H](O)[C@H](N)[C@@H]2O)C[C@@H]2O[C@](O)(C[C@@H](O)C[C@@H](O)[C@H](O)CC[C@@H](O)C[C@@H](O)CC(=O)O[C@H]1C)C[C@H](O)[C@H]2C(=O)O [amphotericin B, Amphotericin B]",effect on spontaneous activity at up to 10 times the normal concentration/volume,[1],No inhibition of activity
CC1=C(/C=C/C(C)=C/C=C/C(C)=C/C(=O)O)C(C)(C)CCC1 [retinoic acid],proportion of cells that responded to the stimulus,P19 cell line,60-70%
Gentamicin,effect on spontaneous activity (firing) of the monitored channel,[1],cessation of neuronal activity
same,reversibility of inhibition,[1]; complete medium change within the MMEP culture apparatus,reversed by a complete medium change
same,long-term effect indicated by poor frequency of activity detection,hippocampal cultures; cultures grown for several weeks in the presence of the antibiotic,toxic effect
same,effect on neuronal network activity after chronic presence,"hippocampal cultures; recommended doses, grown over a 4-week period",almost complete cessation of activity
same,effect on neuronal cytoarchitecture,guinea pigs,major structural changes in neuronal cytoarchitecture
Polymyxin ‘B’,effect on spontaneous activity (firing) of the monitored channel,[1],inhibition of activity
